Results as given in patent US20240336604A1 (THE UNITED STATES OF AMERICA, AS REPRESENTED BY THE …, priority 2021, published 2024).
“Also recorded” adds a separate entry of the source.

Columns and labels:
D2 DAR [1] = molecular target: T1, D2 DAR (Homo sapiens, UniProt P14416); assay: Go BRET activation assay, D2 DAR; type: cell-based; settings: FIG. 3B right
Protocol: Briefly, HEK293T cells transiently expressing either the D2 DAR or D3 DAR and GαoA-Rluc8, untagged-β1, and mVenus-γ2 were harvested with EBSS, plated in 96-well white plates at 20,000 cells/well in DPBS and incubated at RT for 45 min. […] BRET signal was determined by quantifying and calculating the ratio of the light emitted by mVenus (525 nm) over that emitted by RLuc8 (485 nm) using a PHERAstar FSX Microplate Reader (BMG Labtech).

D2 DAR [2] = molecular target: T1, D2 DAR; assay: cAMP CAMYEL biosensor assay, D2 DAR; type: cell-based; settings: FIG. 3C right
Protocol: cAMP CAMYEL biosensor assay: HEK293 cells transiently expressing the D2 DAR or D3 DAR and the CAMYEL cAMP biosensor (yellow fluorescence protein-Epac-Rluc) were harvested with EBSS, plated in 96-well white plates at 20,000 cells/well in DPBS and incubated at room temperature for 45 min. […] BRET signal was determined by quantifying and calculating the ratio of the light emitted by mVenus (525 nm) over that emitted by RLuc8 (485 nm) using a PHERAstar FSX Microplate Reader (BMG Labtech).

168 unique GPCRs = assay: DiscoverX gpcrMAX β-arrestin recruitment assay panel; type: cell-based; settings: 30 μM
Protocol: (§1) Cmp. 1 was tested as both an agonist (FIG. 5A) or an antagonist (FIG. 5B) at a single high concentration (30 μM) on 168 different GPCRs in the DiscoverX gpcrMAX™ β-arrestin recruitment assay panel (FIGS. 5A and 5B). Assay results are presented as the mean percent activation of indicated GPCRs (for n=2 replicates). For a full description of the DiscoverX gpcrMAX™-GPCR assay panel and methods (see: http://www.DiscoverX.com). […] Data were provided by the National Institute of Mental Health (NIMH) Psychoactive Drug Screening Program (PDSP) (University of North Carolina, Chapel Hill, NC). For experimental details including radioligands used and associated Kd values for each individual target, refer to the PDSP website: http://pdsp.med.unc.edu/. While Cmp. […] The 5-HT6 receptor was not present in the functional panels, however, subsequent testing found Cmp.

[3] = tested on: 45 GPCRs, ion channels, and neurotransmitter transporters; assay: PDSP radioligand binding panel; settings: 10 μM
Protocol: as §1

5-HT6 receptor = 5-HT6 receptor (Homo sapiens, UniProt P50406); assay: 5-HT6 cAMP recruitment assay; type: cell-based; settings: read-out: IC50, antagonism of the 5-HT6 receptor
Chain of 5-HT6 receptor (P50406 whole entry): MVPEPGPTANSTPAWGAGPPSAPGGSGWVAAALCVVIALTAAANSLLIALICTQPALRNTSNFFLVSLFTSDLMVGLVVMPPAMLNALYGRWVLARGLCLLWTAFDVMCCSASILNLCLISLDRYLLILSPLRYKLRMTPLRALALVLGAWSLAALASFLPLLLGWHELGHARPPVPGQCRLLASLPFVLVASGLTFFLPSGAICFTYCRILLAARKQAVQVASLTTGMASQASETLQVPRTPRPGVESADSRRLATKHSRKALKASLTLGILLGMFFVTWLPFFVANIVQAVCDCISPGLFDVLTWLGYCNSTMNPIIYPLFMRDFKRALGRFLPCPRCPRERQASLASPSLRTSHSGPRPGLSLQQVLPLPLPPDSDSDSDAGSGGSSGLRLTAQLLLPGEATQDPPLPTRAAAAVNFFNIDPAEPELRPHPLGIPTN

[4] = tested on: other dopamine receptor subtypes; assay: DiscoverX β-arrestin assay, other dopamine receptors; type: cell-based; settings: FIG. 1A
Text: For a secondary-screen and selectivity assays, DAR PathHunter®-arrestin GPCR cell lines from DiscoverX (Fremont, CA) were used. In the D2 DAR PathHunter®-arrestin GPCR cell line, the D2 DAR is overexpressed and fused with a small 42-amino acid fragment of β-galactosidase called ProLink™ on a CHO cellular background expressing a fusion protein of β-arrestin and a larger N-terminal deletion mutant of β-galactosidase (“enzyme acceptor”). When the D2 DAR is activated by dopamine, it stimulates binding of β-arrestin to the ProLink-tagged DAR and the two complementary parts of β-galactosidase form a functional enzyme. When substrate (PathHunter™ Detection reagent) is added, β-galactosidase hydrolyzes it and generates a chemiluminescent signal.

D3 DAR [5] = molecular target: T2, D3 DAR (Homo sapiens, UniProt P35462); assay: DiscoverX D3 DAR β-arrestin recruitment assay; type: cell-based; set-up: host or cells: CHO
T2 sequence (P35462 whole entry, the tested form may be a part): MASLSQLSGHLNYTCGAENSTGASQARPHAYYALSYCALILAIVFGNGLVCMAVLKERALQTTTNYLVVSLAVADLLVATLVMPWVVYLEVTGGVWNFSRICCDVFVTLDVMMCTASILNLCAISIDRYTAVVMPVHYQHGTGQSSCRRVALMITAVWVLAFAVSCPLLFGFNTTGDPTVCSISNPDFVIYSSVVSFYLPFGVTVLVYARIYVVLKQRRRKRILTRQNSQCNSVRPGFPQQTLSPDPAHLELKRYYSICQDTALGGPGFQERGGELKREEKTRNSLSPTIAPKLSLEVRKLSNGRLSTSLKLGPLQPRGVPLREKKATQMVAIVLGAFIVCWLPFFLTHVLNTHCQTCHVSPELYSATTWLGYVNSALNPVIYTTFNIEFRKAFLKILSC
Outline: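 CHO cells overexpressing D3 DAR fused to a ProLink β-galactosidase fragment plus a β-arrestin–β-galactosidase deletion mutant fusion. Receptor activation drives β-arrestin recruitment and enzyme complementation. Chemiluminescent read-out after detection substrate is added.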

D2 DAR [6] = molecular target: T1, D2 DAR; assay: DiscoverX D2 DAR β-arrestin recruitment assay; type: cell-based; set-up: host or cells: CHO; settings: EC80 concentration of DA (1 μM)
Outline: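 CHO cells co-expressing ProLink-tagged D2 DAR and enzyme-acceptor-fused β-arrestin (PathHunter enzyme-fragment complementation). Receptor activation recruits β-arrestin, reconstituting β-galactosidase; detection reagent hydrolysis gives chemiluminescent read-out. Same PathHunter format used for other dopamine receptor subtypes.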

D2 DAR [7] = molecular target: T1, D2 DAR; assay: ERK1/2 phosphorylation assay, D2 DAR; type: cell-based; set-up: host or cells: CHO; settings: FIG. 3D right
Protocol: ERK1/2 Phosphorylation assay: ERK1/2 phosphorylation was measured using the Alphascreen SureFire Ultra ERK kit (PerkinElmer, Waltham, USA). CHO-K1 cells stably expressing either the D2 DAR or D3 DAR were seeded into 384-well small volume white plates at a density of 40,000 cells/well in serum-free Ham's F12 media overnight. […] The plate was shaken for 10 min at RT, followed by the addition of Surefire activation buffer, Surefire reaction buffer, Alphascreen acceptor beads, and Alphascreen donor beads in ratios specified by the manufacturer. The plate was incubated in the dark for 2 h, then read using a PHERAstar FSX Microplate Reader (BMG Labtech).

D3 DAR [8] = molecular target: T2, D3 DAR; assay: Functional curve-shift assays using the DiscoverX β-arrestin recruitment assay; type: cell-based; set-up: host or cells: CHO
Text: To further assess the mechanism of action of Cmp. […] 1 (FIGS. 4B and 4D). […] Average curves are shown (mean±SEM from at least 3 experiments each performed in triplicate). […] In contrast, increasing concentrations of Cmp.
1. FIG. 6A-C panels show concentration-response curves of dopamine in the absence or presence of increasing concentrations of compound. Cmp. […] 18 (FIG. 6A), Cmp. 5 (FIG. 6B), and Cmp. 17 (FIG. 6C), respectively. Average curves are shown (mean±SEM from at least 3 experiments, each performed in triplicate).
A D3 DAR β-arrestin cell line from DiscoverX (Fremont, CA) was used as described in the protocol below (Table 2). A CHO cell line engineered to overexpress the D3 DAR fused with a small 42-amino acid fragment of β-galactosidase called ProLink™ and a fusion protein consisting of β-arrestin and a larger N-terminal deletion mutant of β-galactosidase was used (DiscoverX catalogue number 93-0579C2). When the D3 DAR is activated by dopamine, it stimulates binding of β-arrestin to ProLink-tagged D3 DARs, and the two complementary parts of β-galactosidase form a functional enzyme. When substrate (PathHunter® Detection reagent, DiscoverX 93-0001) is added, β-galactosidase hydrolyzes it and generates a chemiluminescent signal.

T1 sequence (P14416 whole entry): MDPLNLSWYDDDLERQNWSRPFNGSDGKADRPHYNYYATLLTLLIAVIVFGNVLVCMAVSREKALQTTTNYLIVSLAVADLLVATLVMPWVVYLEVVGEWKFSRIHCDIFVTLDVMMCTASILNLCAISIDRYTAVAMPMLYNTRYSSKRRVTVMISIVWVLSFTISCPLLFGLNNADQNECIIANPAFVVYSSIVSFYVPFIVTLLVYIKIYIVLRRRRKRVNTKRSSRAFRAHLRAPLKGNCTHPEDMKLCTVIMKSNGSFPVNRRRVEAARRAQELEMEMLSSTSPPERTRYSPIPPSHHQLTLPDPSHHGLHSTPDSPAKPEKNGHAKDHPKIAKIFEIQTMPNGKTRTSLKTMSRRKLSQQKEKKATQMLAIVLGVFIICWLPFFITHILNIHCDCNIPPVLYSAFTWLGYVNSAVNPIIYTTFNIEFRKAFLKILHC

Cc1ccc(NS(=O)(=O)c2c(C)[nH]c(C)c2C(=O)N2CCCC2)cc1Cl [Cmp. 1]
antagonist activity at the D2 DAR, Go activation (D2 DAR [1]): lacked antagonist activity | antagonist activity at the D2 DAR, cAMP CAMYEL (D2 DAR [2]): lacked antagonist activity | functional activity at the H1 receptor in the functional panels (168 unique GPCRs; H1 receptor): no functional activity | agonist activity in gpcrMAX panel (168 unique GPCRs; agonist mode): lacked agonist activity at all 168 GPCRs | antagonist activity in gpcrMAX panel (168 unique GPCRs; antagonist mode): the only GPCR that was antagonized was the D3 DAR | off-target affinity / displacement in radioligand binding panel [3]: limited off-target affinity; also recorded: minimal displacement at only the H1 histamine and 5-HT6 serotonin receptors | IC50 (5-HT6 receptor): > 50 µM | activity at other dopamine receptor subtypes [4]: no activity | IC50 (D3 DAR [5]; DiscoverX β-arrestin assay, FIG. 1A, 2A, read-out: IC50, inhibition of dopamine-stimulated β-arrestin recruitment to the D3 DAR): ~16 µM | IC50 (D3 DAR [5]; EC80 concentration of DA (30 nM), read-out: D3 DAR IC50): 10 to 50 µM | Emax (D3 DAR [5]; Imax=maximum inhibition, EC80 DA (30 nM)): 80 to 100% | D2 DAR Imax (D2 DAR [6]): NA (“NA” indicates not active) | antagonist activity at the D2 DAR, pERK (D2 DAR [7]): lacked antagonist activity | IC50 (D3 DAR [8]; agonist dopamine, read-out: Functional IC50 for decreasing the Emax of dopamine): 17 µM | IC50 (D3 DAR [8]; agonist pramipexole, read-out: Functional IC50 for decreasing the Emax of pramipexole): 14 µM | mode of antagonism in curve-shift assays (D3 DAR [8]; versus agonist (dopamine, pramipexole)): behaves in a non-competitive manner
